In patent US20250122174A1 (Shenzhen Yuanli Shenwan Innovative Medicine Co., Ltd., priority 2022, published 2025):

Biological target: HPK1 (Homo sapiens (Human), UniProt Q92918)
Assay: HPK1 Inhibition Assay (ADP-Glo kinase assay)
Type: biochemical
Details: ATP 10 μM
Description: A stock solution of 10 mM test compound was prepared in DMSO. The compound was prepared by 5-fold and 10-point serial dilutions with HPK1 kinase assay buffer. The HPK1 kinase assay buffer contained 40 mM Tris, pH 7.5; 20 mM MgCl2, 0.1 mg/ml BSA, and 50 μM DTT. 7.5 ng/μl of Active HPK1 (Promega, V4098) and 0.1 μg/ml MBP substrate protein were added to the reaction system. The final concentration of ATP in the HPK1 kinase reaction system was 10 μM. Serial diluted compounds were transferred to the reaction system and incubated at room temperature for 1 hr. 5 μL of ADP-Glo™ Reagent (Promega, V9101) was added and incubated for 40 min to stop the kinase reaction and deplete the unconsumed ATP. […] The luminescence was measured with a plate-reading luminometer.

Chain of HPK1 (Q92918 1-346 limits assumed): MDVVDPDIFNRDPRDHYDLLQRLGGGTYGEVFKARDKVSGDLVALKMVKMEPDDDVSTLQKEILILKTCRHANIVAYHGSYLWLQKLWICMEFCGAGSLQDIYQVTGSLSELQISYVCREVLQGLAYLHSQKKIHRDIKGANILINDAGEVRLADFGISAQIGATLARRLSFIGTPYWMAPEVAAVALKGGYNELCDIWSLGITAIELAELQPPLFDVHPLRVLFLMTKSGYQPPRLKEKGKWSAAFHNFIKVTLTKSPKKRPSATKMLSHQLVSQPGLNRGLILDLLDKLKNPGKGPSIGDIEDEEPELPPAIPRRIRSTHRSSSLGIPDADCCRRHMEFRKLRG

IC50 | SMILES
< 100 nM | CC(C)n1ncc2c(N3C[C@@H](N)C(C)(C)C3)c(NC(=O)c3ccc(=O)n(-c4c(F)cccc4F)n3)ccc21 [Example 187, (S)-N-(4-(4-amino-3,3-dimethylpyrrolidin-1-yl)-1-isopropyl-1H-indazol-5-yl)-1-(2,6-difluorophenyl)-6-oxo-1,6-dihydropyridazine-3-carboxamide]
< 100 nM | COCc1nc2c(N3CC[C@H](N)C3)c(NC(=O)c3ccnc(-c4c(F)cccc4OC)c3F)ccc2n1C [Example 15, N-{4-[(3S)-3-aminopyrrolidin-1-yl]-2-(methoxymethyl)-1-methyl-1,3-benzodiazol-5-yl}-3-fluoro-2-(2-fluoro-6-methoxyphenyl) pyridine-4-carboxamide]
< 100 nM | N[C@H]1CN(c2c(NC(=O)c3ccc(=O)n(-c4c(F)cccc4F)n3)ccc3nn(C4CC4)cc23)CC12CC2 [Example 336, (R)-N-(4-(7-amino-5-azaspiro[2.4]heptan-5-yl)-2-cyclopropyl-2H-indazol-5-yl)-1-(2,6-difluorophenyl)-6-oxo-1,6-dihydropyridazine-3-carboxamide]
< 100 nM | C[C@H]1CN(c2c(NC(=O)c3ccc(=O)n(-c4c(F)cccc4F)n3)ccc3c2cnn3[C@H]2CCOC2)C[C@@H]1N [Example 260, N-(4-((3R,4S)-3-amino-4-methylpyrrolidin-1-yl)-1-((S)-tetrahydrofuran-3-yl)-1H-indazol-5-yl)-1-(2,6-difluorophenyl)-6-oxo-1,6-dihydropyridazine-3-carboxamide]
< 100 nM | Cc1nn(C(C)C)c2c(F)cc(NC(=O)c3ccc(=O)n(-c4c(F)cccc4F)n3)c(N3C[C@@H](C)[C@@H](N)C3)c12 [Example 218, N-(4-((3R,4R)-3-amino-4-methylpyrrolidin-1-yl)-7-fluoro-1-isopropyl-3-methyl-1H-indazol-5-yl)-1-(2,6-difluorophenyl)-6-oxo-1,6-dihydropyridazine-3-carboxamide]
< 100 nM | CC(C)n1cc2c(N3C[C@H](C)[C@@H](N)C3)c(NC(=O)c3ccc(=O)n(-c4c(F)cccc4F)n3)ccc2n1 [Example 231, N-(4-((3R,4S)-3-amino-4-methylpyrrolidin-1-yl)-2-isopropyl-2H-indazol-5-yl)-1-(2,6-difluorophenyl)-6-oxo-1,6-dihydropyridazine-3-carboxamide]
< 100 nM | CC(C)n1ncc2c(N3CC[C@@](C)(N)C3)c(NC(=O)c3ccc(=O)n(-c4c(F)cccc4F)n3)ccc21 [Example 208, (R)-N-(4-(3-amino-3-methylpyrrolidin-1-yl)-1-isopropyl-1H-indazol-5-yl)-1-(2,6-difluorophenyl)-6-oxo-1,6-dihydropyridazine-3-carboxamide]
< 100 nM | CCC(C)(C)n1cc2c(N3C[C@H](C)[C@@H](N)C3)c(NC(=O)c3ccc(=O)n(-c4c(F)cccc4F)n3)ccc2n1 [Example 243, N-(4-((3R,4S)-3-amino-4-methylpyrrolidin-1-yl)-2-(tert-pentyl)-2H-indazol-5-yl)-1-(2,6-difluorophenyl)-6-oxo-1,6-dihydropyridazine-3-carboxamide]
< 100 nM | COc1cccc(F)c1-c1nccc(C(=O)Nc2ccc3c(nc(C)n3C)c2N2CCC(N)CC2)c1F [Example 8, N-(4-(4-aminopiperidin-1-yl)-1,2-dimethyl-1H-benzo[d]imidazol-5-yl)-3-fluoro-2-(2-fluoro-6-methoxyphenyl)isonicotinamide]
< 100 nM | CC(C)c1nc2c(N3CC4C[C@]4(N)C3)c(NC(=O)c3ccc(=O)n(-c4c(F)cccc4F)n3)ccc2n1C (stereo partly drawn) [Example 112, N-(4-((1R)-1-amino-3-azabicyclo[3.1.0]hexan-3-yl)-2-isopropyl-1-methyl-1H-benzo[d]imidazol-5-yl)-1-(2,6-difluorophenyl)-6-oxo-1,6-dihydropyridazine-3-carboxamide]
< 100 nM | COCCn1ncc2c(N3CC[C@@H](N)C3)c(NC(=O)c3ccc(=O)n(-c4c(F)cccc4F)n3)ccc21 [Example 285, (R)-N-(4-(3-aminopyrrolidin-1-yl)-1-(2-methoxyethyl)-1H-indazol-5-yl)-1-(2,6-difluorophenyl)-6-oxo-1,6-dihydropyridazine-3-carboxamide]
< 100 nM | CC(C)n1ncc2c(N3CC[C@@H](CN)C3)c(NC(=O)c3ccc(=O)n(-c4c(F)cccc4F)n3)cc(F)c21 [Example 204, (S)-N-(4-(3-(aminomethyl)pyrrolidin-1-yl)-7-fluoro-1-isopropyl-1H-indazol-5-yl)-1-(2,6-difluorophenyl)-6-oxo-1,6-dihydropyridazine-3-carboxamide]
< 100 nM | CO[C@@H]1CN(c2c(NC(=O)c3ccc(=O)n(-c4c(F)cccc4F)n3)ccc3c2cnn3C(C)C)C[C@H]1N (stereo in doubt) [Example 200, N-(4-((3R,4R)-3-amino-4-methoxypyrrolidin-1-yl)-1-isopropyl-1H-indazol-5-yl)-1-(2,6-difluorophenyl)-6-oxo-1,6-dihydropyridazine-3-carboxamide]
< 100 nM | Cn1c(CC(F)(F)F)nc2c(N3CC[C@@H](N)C3)c(NC(=O)c3ccc(=O)n(-c4c(F)cccc4F)n3)ccc21 [Example 156, (R)-N-(4-(3-aminopyrrolidin-1-yl)-1-methyl-2-(2,2,2-trifluoroethyl)-1H-benzo[d]imidazol-5-yl)-1-(2,6-difluorophenyl)-6-oxo-1,6-dihydropyridazine-3-carboxamide]
< 100 nM | C[C@]1(O)CCN(c2cc(-c3cnccc3C#N)ccc2NC(=O)c2ccc(=O)n(-c3c(F)cccc3F)n2)C1 (single isomer, unassigned) [Example 353]
< 100 nM | C[C@H]1CN(c2c(NC(=O)c3ccc(=O)n(-c4c(F)cccc4F)n3)ccc3nn(C4CC(F)(F)C4)cc23)C[C@@H]1N [Example 309, N-(4-((3R,4S)-3-amino-4-methylpyrrolidin-1-yl)-2-(3,3-difluorocyclobutyl)-2H-indazol-5-yl)-1-(2,6-difluorophenyl)-6-oxo-1,6-dihydropyridazine-3-carboxamide]
< 100 nM | CC(C)n1cnc2c(N3C[C@@H](C)[C@@H](N)C3)c(NC(=O)c3ccc(=O)n(-c4c(F)cccc4F)n3)ccc21 [Example 154, N-(4-((3R,4R)-3-amino-4-methylpyrrolidin-1-yl)-1-isopropyl-1H-benzo[d]imidazol-5-yl)-1-(2,6-difluorophenyl)-6-oxo-1,6-dihydropyridazine-3-carboxamide]
< 100 nM | N[C@@H]1CCN(c2c(NC(=O)c3ccc(=O)n(-c4c(F)cccc4F)n3)ccc3c2cnn3CC(F)(F)F)C1 [Example 290, (R)-N-(4-(3-aminopyrrolidin-1-yl)-1-(2,2,2-trifluoroethyl)-1H-indazol-5-yl)-1-(2,6-difluorophenyl)-6-oxo-1,6-dihydropyridazine-3-carboxamide]
< 100 nM | N#Cc1ccncc1-c1ccc(NC(=O)c2ccc(=O)n(-c3c(F)cccc3F)n2)c(N2CC[C@@](N)(CO)C2)c1 (single isomer, unassigned) [Example 355]
< 100 nM | N#Cc1ccncc1-c1ccc(NC(=O)c2ccc(=O)n(-c3c(F)cccc3F)n2)c(N2CCC(N)(CO)CC2)c1 [Example 352, N-(2-(4-amino-4-(hydroxymethyl)piperidin-1-yl)-4-(4-cyanopyridin-3-yl)phenyl)-1-(2,6-difluorophenyl)-6-oxo-1,6-dihydropyridazine-3-carboxamide]
< 100 nM | N[C@H]1CN(c2c(NC(=O)c3ccc(=O)n(-c4c(F)cccc4F)n3)ccc3c2cnn3[C@@H]2CCCOC2)CC12CC2 [Example 272, N-(4-((R)-7-amino-5-azaspiro[2.4]heptan-5-yl)-1-((R)-tetrahydro-2H-pyran-3-yl)-1H-indazol-5-yl)-1-(2,6-difluorophenyl)-6-oxo-1,6-dihydropyridazine-3-carboxamide]
< 100 nM | Cn1c(C(C)(C)C)nc2c(N3CC[C@@H](N)C3)c(NC(=O)c3ccc(=O)n(-c4c(F)cccc4F)n3)ccc21 [Example 99, (R)-N-(4-(3-aminopyrrolidin-1-yl)-2-(tert-butyl)-1-methyl-1H-benzo[d]imidazol-5-yl)-1-(2,6-difluorophenyl)-6-oxo-1,6-dihydropyridazine-3-carboxamide]
< 100 nM | COc1cccc(F)c1-n1nccc(C(=O)Nc2ccc3c(nc(C(F)(F)F)n3C)c2N2CC[C@H](N)C2)c1=O [Example 41, (S)-N-(4-(3-aminopyrrolidin-1-yl)-1-methyl-2-(trifluoromethyl)-1H-benzo[d]imidazol-5-yl)-2-(2-fluoro-6-methoxyphenyl)-3-oxo-2,3-dihydropyridazine-4-carboxamide]
< 100 nM | N#Cc1ccncc1-c1ccc(NC(=O)c2ccc(=O)n(-c3c(F)cccc3F)n2)c(N2CC[C@H](N)C2)c1 [Example 344, (S)-N-(2-(3-aminopyrrolidin-1-yl)-4-(4-cyanopyridin-3-yl)phenyl)-1-(2,6-difluorophenyl)-6-oxo-1,6-dihydropyridazine-3-carboxamide]
100 to 1000 nM | Cc1nc2c(N3CCCC4(CNC4)C3)c(NC(=O)c3ccc(=O)n(-c4c(F)cccc4F)n3)ccc2n1C [Example 84, 1-(2,6-difluorophenyl)-N-(1,2-dimethyl-4-(2,6-diazaspiro[3.5]nonan-6-yl)-1H-benzo[d]imidazol-5-yl)-6-oxo-1,6-dihydropyridazine-3-carboxamide]
< 100 nM | C[C@@H]1CN(c2c(NC(=O)c3ccc(=O)n(-c4c(F)cccc4F)n3)ccc3c2cnn3C2CCCC2)C[C@@H]1N [Example 288, N-(4-((3R,4R)-3-amino-4-methylpyrrolidin-1-yl)-1-cyclopentyl-1H-indazol-5-yl)-1-(2,6-difluorophenyl)-6-oxo-1,6-dihydropyridazine-3-carboxamide34]
